Here are results for 61 compounds from the METLIN SMRT retention time set (Domingo-Almenara et al. 2019).

The structures appear in SMILES notation.

The series can be described thus: gradient 5% acetonitrile 3 min, to 50% in 2 min, to 85% in 15 min, held 3 min, 100 µL/min. As to conditions: column: Zorbax Extend-C18 2.1 x 50 mm; eluents: water / acetonitrile, 0.1% formic acid. In a few lines:
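The system's dead and dwell volumes were 40 μL and 900 μL, with a Zorbax Extend-C18 column (2.1 × 50 mm, 1.8 μm) run at 100 μL/min in water and acetonitrile containing 0.1% formic acid each. Pure standards were analyzed in mixtures of ~100 molecules by HPLC–quadrupole time-of-flight mass spectrometry in positive and negative ionization mode. Retention time was assigned from computationally picked, manually inspected adduct peaks.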
Compound `Clc1ccc(CSc2cc(Cl)ncn2)cc1` came in with an RP-LC retention time of 1170 s.

`COc1ccc(NC(=O)c2cnc(N3CCN(C4CCCCC4)CC3)nc2N)cc1` had an RP-LC retention time of 631 s.

As to `COc1cc(C)nc(-n2nc(C)cc2OC)n1`, the RP-LC retention time came out at 711 s.

In the case of `O=C(Nc1ccc(CC(=O)N2CCOCC2)cc1)c1ccco1`, the RP-LC retention time was found to be 594 s.

Compound `Cc1ccc2c(c1)N(Cc1nc(-c3ccc(OC(F)(F)F)cc3)no1)C(=O)CO2` returned an RP-LC retention time of 1210 s.

As for `COc1ccc2c(c1)C1(CCN(S(=O)(=O)c3ccccc3)C1)C(=O)N2` (stereo unspecified), the RP-LC retention time amounted to 771 s.

`COCCCNC(=O)CCc1c(-c2ccc(Cl)cc2)nc2ccccn12` displayed an RP-LC retention time of 607 s.

`CCOC(=O)c1ccc(NC(=O)c2ccc(=O)n(C)n2)cc1` returned an RP-LC retention time of 693 s.

With `Cn1c(N2CCN(S(=O)(=O)c3cc(F)ccc3F)CC2)nc2ccccc21`, the RP-LC retention time worked out at 601 s.

In the case of `Cn1cc(CN2CCC(C(=O)NCc3ccc(F)cc3)CC2)c2cc(Cl)ccc21`, the RP-LC retention time stood at 716 s.

In the case of `Cc1ccc(N2CCC(NC(=O)c3ccc(N(C)C)cc3)C2=O)cc1` (stereo unspecified), the RP-LC retention time is 810 s.

Take `Cc1cc(C)n(-c2ccc(CNC(=O)c3ccc(Cl)s3)cc2)n1`: the RP-LC retention time came to 892 s.

With `O=c1c2sccc2n(Cc2nc(-c3ccc(F)c(Cl)c3)no2)c(=O)n1Cc1ccccc1`, the RP-LC retention time is 1210 s.

In turn, `CCCC(=O)Nc1ccc(CCc2nc3ccc(C(=O)NC4CCCC4)cc3[nH]2)cc1` returned an RP-LC retention time of 650 s.

In the case of `CNC(C)Cc1ccccc1OC` (stereo unspecified), the RP-LC retention time is 646 s.

The compound `CS(=O)(=O)N(C1CCOCC1)C1CN(C(=O)NCc2ccccc2)C1` came in with an RP-LC retention time of 660 s.

`CCc1nc2cc3c(cc2n1CC(=O)Nc1ccc2c(c1)OCCO2)OCCO3` gave an RP-LC retention time of 618 s.

`Cc1cc(C)cc(C(=O)N2CCC(C(=O)NCc3csc(-c4cccs4)n3)CC2)c1`: the RP-LC retention time came out at 860 s.

`Cc1nc(-c2noc(-c3ccncc3)n2)cn1CC(=O)N1CCN(c2ccccc2)CC1`: the RP-LC retention time worked out at 673 s.

The compound `CCc1ccc(C2=C(C)C(N3CCC(NC(=O)NC(C)C)CC3)=NS2(=O)=O)cc1` displayed an RP-LC retention time of 596 s.

Consider `CN(C)S(=O)(=O)c1ccc(-c2nnc(C(=O)N3CCC4(CC3)OCCO4)o2)cc1`, for which the RP-LC retention time came out at 746 s.

In the case of `COC1CCC12CCN(S(=O)(=O)c1ccc(C)cc1)CC2` (stereo unspecified), the RP-LC retention time is 1020 s.

Compound `CCc1nn(CCO)c(CC)c1Oc1cc(C#N)cc(C#N)c1` yielded an RP-LC retention time of 891 s.

For `CCOCC(=O)N1CCCC(c2nc(CNC(=O)C(C)C)cs2)C1` (stereo unspecified), the RP-LC retention time was found to be 625 s.

The compound `Cn1nc(-c2ccccc2)nc1C1CN(C(=O)Nc2ccccc2C(F)(F)F)C1` returned an RP-LC retention time of 807 s.

With `Cn1cc(CN2C[C@@H](CO)[C@H](NC(=O)C3CCC3)C2)c2ccccc21`, the RP-LC retention time was 615 s.

Compound `Cn1cnc(S(=O)(=O)N2CCC(Cc3nncn3Cc3ccccc3)CC2)c1` returned an RP-LC retention time of 618 s.

The compound `CCc1ccc(Nc2nc(C(=O)NCCc3cnc[nH]3)nc3ccccc23)cc1` showed an RP-LC retention time of 603 s.

Take `CCN1c2ccc(Cl)cc2C(=O)NC12CCN(C(=O)Nc1ccccc1OC)CC2`: the RP-LC retention time stood at 895 s.

The compound `CCC(=O)Nc1ccc(C2(C(=O)N3CCOCC3)CCCCC2)cc1` registered an RP-LC retention time of 721 s.

The compound `CCN1CCC2(CC1)N=C(c1ccc(C)cc1C)CC(c1cc(Cl)ccc1O)N2` (stereo unspecified) registered an RP-LC retention time of 668 s.

In turn, `O=C(c1ccoc1)N1CCC2(CC1)N=C(c1ccc(Cl)cc1)NO2` had an RP-LC retention time of 774 s.

Turning to `Cc1noc(C2CN(CCc3ccccc3)CC23CCCC3)n1` (stereo unspecified), the RP-LC retention time is 674 s.

In turn, `CC(NC(=O)c1cc2sccc2n1C)c1ccc2c(c1)OCCO2` (stereo unspecified) yielded an RP-LC retention time of 903 s.

Turning to `CCn1cc(-c2nc(C(=O)Nc3ccc(C(=O)OC)cc3)cs2)c2cccnc21`, the RP-LC retention time was 1080 s.

Take `CCn1nc(N2CCCC(NS(=O)(=O)c3cccc4cccnc34)C2)ccc1=O` (stereo unspecified): the RP-LC retention time came out at 736 s.

In turn, `O=C(NCCC1CCN(C(=O)Nc2cc(F)cc(F)c2)CC1)c1cccs1` gave an RP-LC retention time of 861 s.

The compound `CCCCN1CCc2nc(Nc3cc(OC)ccc3OC)ncc2C1` displayed an RP-LC retention time of 655 s.

Regarding `Cc1cccc(S(=O)(=O)N2CC3CN(C(=O)C(C)c4ccccc4)CC(C2)O3)c1` (stereo unspecified), the RP-LC retention time was determined as 905 s.

`CN1CCN(c2ccc(CNC(=O)CN3CCN(Cc4ccc(F)cc4)C3=O)cc2)CC1` registered an RP-LC retention time of 599 s.

As to `Cn1cccc1C(=O)N1CCCC1c1nc(-c2ccccc2)n[nH]1` (stereo unspecified), the RP-LC retention time amounted to 716 s.

`COc1ccc(-c2nc(Cc3noc(-c4cccc(F)c4)n3)c(C)o2)cc1` gave an RP-LC retention time of 1040 s.

Turning to `O=C(CCn1nnc2cc(-c3noc(-c4ccc(Br)o4)n3)ccc21)N1CCOCC1`, the RP-LC retention time amounted to 822 s.

As for `O=S(=O)(Nc1cccn2ncnc12)c1cccc(C(F)(F)F)c1`, the RP-LC retention time is 804 s.

`Cc1ccc(C(CNC(=O)c2cc(-c3ccccc3)on2)N(C)C)o1` (stereo unspecified) returned an RP-LC retention time of 683 s.

`COCC(C)NC(=O)c1ccc2c(c1)CCCN2S(C)(=O)=O` (stereo unspecified) registered an RP-LC retention time of 679 s.

With `CCn1c(=O)c(C)nc2cc(-c3noc(Cc4ccccc4Br)n3)ccc21`, the RP-LC retention time was found to be 1070 s.

`CCOc1ccccc1NC(=O)NCCn1c(C(F)(F)F)nc2cccnc21` returned an RP-LC retention time of 799 s.

In turn, `Cc1cc(C(=O)Nc2ccc(Cl)cc2)nc2cc(-c3ccco3)nn12` displayed an RP-LC retention time of 1170 s.

Turning to `COc1ccc(Cl)cc1C(=O)Nc1ccc2c(c1)N(C)C(=O)C(C)(C)CO2`, the RP-LC retention time is 955 s.

Compound `O=C(c1ccc2c(c1)OCO2)N1CCN(c2nc(CN3CCOCC3)cs2)CC1` came in with an RP-LC retention time of 596 s.

The compound `COc1ccc(NC(=O)Nc2ccc(C)n(CC(=O)O)c2=O)cc1` came in with an RP-LC retention time of 668 s.

`COc1ccc(NC(=O)Cn2c(=O)n(-c3ccccc3)c3ncccc32)cc1OC` returned an RP-LC retention time of 729 s.

For `Cc1ccc(C)c(-c2coc(-c3ccc(NC(=O)c4sccc4C)cc3)n2)c1`, the RP-LC retention time was 1330 s.

Turning to `Cc1ccc(N2CCN(c3nccn4nc(-c5ccc(Cl)cc5)cc34)CC2)cc1`, the RP-LC retention time turned out to be 1400 s.

`COc1nccnc1NC1CCN(C(=O)c2cccnc2)CC1` had an RP-LC retention time of 692 s.

In the case of `CCOC(=O)C1CCN(C(=O)C2c3ccccc3C(=O)N3CCc4cc(OC)c(OC)cc4C23)CC1` (stereo unspecified), the RP-LC retention time amounted to 766 s.

In turn, `CN1C(=O)c2cccc(NC(=O)C3COc4ccccc4O3)c2C1=O` (stereo unspecified) showed an RP-LC retention time of 913 s.

On to `COc1cc(OC)cc(-c2cc3cnc(N)nc3nc2NC(=O)NC(C)(C)C)c1`, for which the RP-LC retention time was 814 s.

Compound `COc1cccc(Cn2c(C)c(CNCc3cccnc3)c(C(=O)O)c2C)c1` yielded an RP-LC retention time of 625 s.

`O=C(Nc1cccc(Cl)c1)Nc1c(-c2ccc(F)cc2)nc2ccccn12` registered an RP-LC retention time of 730 s.
